Data from PMC12040169 (PLOS Biology, 2025).

Test: in vitro
Conditions: human, hela cells, % viability
In the case of `CC(C)(C)OC(=O)N1CCN(CCCOC2(C)SC(NC3CC4CCC3C4)=NC2=O)CC1` (stereo not shown) [CBK115612], the viability at 28.5 h, 10 µM was 95.9%. Compound `CCC(C)NCc1cccc(Oc2ncccn2)c1` (stereo not shown) [CBK288090] has a viability at 28.5 h, 10 µM of 106%. `Cc1cccn2c(=O)cc(CN3CCn4c(nnc4C4CC4)C3)nc12` [CBK305232] gave a viability at 28.5 h, 10 µM of 102%. In the case of `Cc1ccc(C2(O)CC3CCC(C2)N3C(=O)c2ccncc2)cc1` (stereo not shown) [CBK284609], the viability at 28.5 h, 10 µM was 100%. With `C=CCNC(=O)N[C@H]1[C@H](O)[C@@H](N2CCN(c3ccccc3OC)CC2)[C@@H]2OC[C@H]1O2` [CBK288818] the viability at 28.5 h, 10 µM was 89.7%. `Cc1ccc(OCC(=O)NC(C)c2ccc(F)cc2F)c([N+](=O)[O-])n1` (stereo not shown) [CBK295662] showed a viability at 28.5 h, 10 µM of 92.7%. `Cc1nc(C2CN(Cc3ccc(Cl)c4cccnc34)CCO2)no1` (stereo not shown) [CBK305384] showed a viability at 28.5 h, 10 µM of 102%. With `Cc1nc2sccn2c1CN1CCC(O)(c2ccc(F)cc2)CC1` [CBK282792] the viability at 28.5 h, 10 µM was 98.2%. `S=c1[nH]nc2ccc(N3CCOCC3)nn12` [CBK008327] gave a viability at 28.5 h, 10 µM of 101%. In the case of `COc1ccc(C(=O)N[C@@H]2CC[C@@]3(c4ccc(OC)c(OC)c4)CCN(C)[C@H]3C2)c(OC)c1` [CBK074247T], the viability at 28.5 h, 10 µM was 91.7%. With `CN1CCc2c(sc3nc(SCc4ccc(Cl)c(Cl)c4)n(-c4ccccc4)c(=O)c23)C1` [CBK263706] the viability at 28.5 h, 10 µM was 94.2%. With `Cc1cc(C)n(CC(O)CN2C(=O)NC(C)(C)C2=O)n1` (stereo not shown) [CBK264811] the viability at 28.5 h, 10 µM was 107%. In the case of `CC(C)n1nccc1NC(=O)CCn1ccnc1-c1ccccc1` [CBK281536], the viability at 28.5 h, 10 µM was 88.3%. With `O=C(CC1SC(N2CCOCC2)=NC1=O)Nc1cccc(C(=O)O)c1` (stereo not shown) [CBK300498] the viability at 28.5 h, 10 µM was 101%. For `CC(=O)c1cccc(NC(=O)/C(=C\c2cccnc2)NC(=O)c2ccc(C)cc2)c1` [CBK262456], the viability at 28.5 h, 10 µM was 88.6%. With `O=C1CC2(CCN(C(=O)c3ccccc3F)CC2)Oc2c(Cl)cc(Cl)cc21` [CBK156453] the viability at 28.5 h, 10 µM was 91.8%. `O=C1NC2(CCN(C(=O)c3ccco3)CC2)Nc2ccccc21` [CBK284762] showed a viability at 28.5 h, 10 µM of 104%. `Nn1c(CSc2ccccn2)nnc1CSc1ccccn1` [CBK266987] gave a viability at 28.5 h, 10 µM of 90.8%. For `Cc1nc(SCc2ccccc2)nc(O)c1CC(=O)O` [CBK264203], the viability at 28.5 h, 10 µM was 96.8%. `NC(=O)CC1C=CS(=O)(=O)C1` (stereo not shown) [CBK019653] gave a viability at 28.5 h, 10 µM of 76.7%. Work on `O=C(NCc1ccc(OC2CCNCC2)cc1)c1ccccn1` [CBK036361T] yielded a viability at 28.5 h, 10 µM of 93.1%. With `Cn1c(SCc2cccnc2)nnc1-c1cccs1` [CBK067706] the viability at 28.5 h, 10 µM was 93.1%. Compound `Cc1ccc(/N=N/c2c(O)c(C(=O)Nc3ccc4c(c3)c(=O)[nH]c3ccccc34)cc3ccccc23)c(Cl)c1` [CBK262306] has a viability at 28.5 h, 10 µM of 92.7%. `CCc1cc2c(=O)c(-c3cnn(-c4ccccc4)c3)c(C(F)(F)F)oc2c(CN2CCCCC2)c1O` [CBK264458] showed a viability at 28.5 h, 10 µM of 91.7%. In the case of `COC(=O)[C@@H]1CN(C(=O)Nc2ccccc2)CCN1C(=O)C1CCCCC1` [CBK289607], the viability at 28.5 h, 10 µM was 91%. For `O=C(/C=C/c1ccc2c(c1)OCO2)N1CCN(c2ncccn2)CC1` [CBK144501], the viability at 28.5 h, 10 µM was 89.5%. In the case of `Cc1cc(OCc2nnc(SCC(=O)N3CCN(c4ccccc4)CC3)n2C)ccc1Cl` [CBK268611], the viability at 28.5 h, 10 µM was 104%. Work on `CC(CN(C)C(=O)Cn1cccc(C(=O)Nc2ccc(F)cc2)c1=O)c1ccccc1` (stereo not shown) [CBK286065] yielded a viability at 28.5 h, 10 µM of 92.5%. In the case of `COc1ccc(N2CCN(c3nc(NCCO)nc(OC)n3)CC2)cc1` [CBK265478], the viability at 28.5 h, 10 µM was 103%. `CCc1nc2ccc(C(=O)Nc3ccc4c(c3)CCN4C(C)=O)cn2c1N(C=O)CC` [CBK145944] showed a viability at 28.5 h, 10 µM of 102%. Compound `Cc1nn(C)c(Cl)c1CN(CCC#N)Cc1ccco1` [CBK304825] has a viability at 28.5 h, 10 µM of 96.6%. With `Cc1cc2c(cc3c(=O)n(CC(=O)NC(C)(C)C)nc(C)n32)s1` [CBK284070] the viability at 28.5 h, 10 µM was 84.1%. Work on `CC(C)(C)c1ccc(N(C2CCNCC2)S(=O)(=O)c2ccc(Cl)cc2Cl)cc1` [CBK165067T] yielded a viability at 28.5 h, 10 µM of 51%.

Same assay, conditions: human, hela cells, % viability, bulk resorufin, single well
With `COc1ccc(C(C)NC(=O)c2cccc(-c3ccc4c(c3)COC3(CCN(C(=O)OC(C)(C)C)CC3)O4)c2)cc1` (stereo not shown) [CBK107833] the viability at 28.5 h, 10 µM was 100%.
